Test results as given in ChEMBL document CHEMBL1201862, “PubChem BioAssay data set” (2004).
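1) Cells in 96-well plates. 2) Compound, 48 h, 5 concentrations. 3) Linear interpolation between surrounding doses. 4) Unreached endpoint = highest concentration. Here, GI50 denotes the concentration required for 50% inhibition of growth.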 Activity calls are given as the source filed them. No stated cut-off is given here; in the data, active = GI50 up to about 1.1 µM and inactive = higher.

Columns and labels:
Experiment in all cases: DTP human tumour cell line panel, 48 h
A549 = system: A549
MCF7 = system: MCF7
NCI-H226 = system: NCI-H226
NCI-H522 = system: NCI-H522
CCRF-CEM = system: CCRF-CEM
MOLT-4 = system: MOLT-4
EKVX = system: EKVX
NCI-H23 = system: NCI-H23
DU-145 = system: DU-145
NCI/ADR-RES = system: NCI/ADR-RES
CAKI-1 = system: CAKI-1
SW-620 = system: SW-620
Hs-578T = system: Hs-578T
SNB-75 = system: SNB-75
OVCAR-5 = system: OVCAR-5
OVCAR-8 = system: OVCAR-8
U-251 = system: U-251
SK-MEL-2 = system: SK-MEL-2
M14 = system: M14

Measured: GI50

O=C(NCCN1CCOCC1)c1cn2c(ccc3sc4ccccc4c(=O)c32)n1
inactive: A549 4.62 µM | MCF7 7.08 µM | NCI-H226 32 µM | NCI-H522 10.7 µM | CCRF-CEM > 10 µM | MOLT-4 3.3 µM | EKVX > 100 µM | NCI-H23 20.7 µM | DU-145 > 100 µM | NCI/ADR-RES 20.6 µM | CAKI-1 > 100 µM | SW-620 4.85 µM | Hs-578T 12.2 µM | SNB-75 24.8 µM | OVCAR-5 10.7 µM | OVCAR-8 > 100 µM | U-251 10 µM

Nc1nc(Cl)cc(NCC2(CO)CC(O)C2)n1 (centres undefined)
inactive: A549 > 100 µM | MCF7 > 100 µM | NCI-H226 > 100 µM | NCI-H522 > 100 µM | CCRF-CEM > 100 µM | MOLT-4 > 100 µM | EKVX > 100 µM | SK-MEL-2 > 100 µM | NCI-H23 > 100 µM | DU-145 > 100 µM | NCI/ADR-RES > 100 µM | CAKI-1 > 100 µM | SW-620 > 100 µM | Hs-578T > 100 µM | SNB-75 > 100 µM | OVCAR-5 > 100 µM | OVCAR-8 > 100 µM | U-251 > 100 µM

CCCCCCn1c(SC)nc(COC(=O)NC)c1COC(=O)NC
inactive: A549 16.4 µM | MCF7 20.1 µM | NCI-H226 17.2 µM | NCI-H522 11.4 µM | CCRF-CEM > 10 µM | MOLT-4 13 µM | EKVX 13.9 µM | SK-MEL-2 25.8 µM | NCI-H23 21.2 µM | DU-145 16.5 µM | NCI/ADR-RES 25.5 µM | CAKI-1 15.7 µM | M14 21.3 µM | SW-620 19.2 µM | Hs-578T 20.4 µM | SNB-75 14.6 µM | OVCAR-5 19.9 µM | OVCAR-8 17.4 µM

Nc1nc(S)nc2snnc12
inactive: A549 > 100 µM | MCF7 > 100 µM | NCI-H226 > 100 µM | NCI-H522 > 100 µM | CCRF-CEM > 100 µM | MOLT-4 > 100 µM | SK-MEL-2 > 100 µM | NCI-H23 > 100 µM | DU-145 > 100 µM | NCI/ADR-RES > 100 µM | CAKI-1 > 100 µM | SW-620 > 100 µM | Hs-578T > 100 µM | SNB-75 > 100 µM | OVCAR-5 > 100 µM | OVCAR-8 > 100 µM | U-251 > 10 µM

FC1(F)[Se]C2C3CCC(C3)C2C1(F)F (centres undefined)
inactive: A549 > 100 µM | MCF7 > 100 µM | NCI-H226 > 100 µM | NCI-H522 > 100 µM | MOLT-4 > 100 µM | EKVX > 100 µM | SK-MEL-2 > 100 µM | DU-145 > 100 µM | NCI/ADR-RES > 100 µM | CAKI-1 > 100 µM | M14 > 100 µM | SW-620 > 100 µM | Hs-578T > 100 µM | SNB-75 97.3 µM | OVCAR-5 > 100 µM | OVCAR-8 > 100 µM | U-251 > 100 µM

CN(C)/C=N/c1ccc2c3c(cccc13)-c1ccccc1-2
inactive: A549 11.5 µM | MCF7 16.8 µM | NCI-H226 10.6 µM | NCI-H522 3.66 µM | CCRF-CEM 2.23 µM | MOLT-4 10.1 µM | EKVX 10.5 µM | SK-MEL-2 17.1 µM | NCI-H23 17.2 µM | DU-145 12.7 µM | NCI/ADR-RES 14.9 µM | M14 10.2 µM | Hs-578T 10.3 µM | SNB-75 13 µM | OVCAR-5 11.1 µM | OVCAR-8 14.6 µM | U-251 13.4 µM
